A word on the IC50: it is the concentration that gives 50% inhibition.

Format in all cases: biochemical
The target in one assay is PDE1C (Homo sapiens (Human), UniProt Q14123). Description: biochemical. The following applies: 15 nM tritium labelled cAMP, 1 hr at room temperature, SPA beads. The text has this: (§1) Table 1 lists the IC50 value for inhibition of PDE1 by the compounds of the invention. […] PDE1 assays are described in the Experimental Section.
Another assay addresses PDE1A (Homo sapiens (Human), UniProt P54750). Description: biochemical. Conditions: 15 nM tritium labelled cAMP, 1 hr at room temperature, SPA beads.
Source text: as §1

Another assay has as its target PDE1B (Homo sapiens (Human), UniProt Q01064). The assay is described as follows: PDE1 inhibition assay (PDE1B). The following applies: 15 nM tritium labelled cAMP, 1 hr at room temperature, SPA beads; read-out: PDE1B, IC50.
Source text: as §1

Chain of PDE1B (Q01064 whole entry): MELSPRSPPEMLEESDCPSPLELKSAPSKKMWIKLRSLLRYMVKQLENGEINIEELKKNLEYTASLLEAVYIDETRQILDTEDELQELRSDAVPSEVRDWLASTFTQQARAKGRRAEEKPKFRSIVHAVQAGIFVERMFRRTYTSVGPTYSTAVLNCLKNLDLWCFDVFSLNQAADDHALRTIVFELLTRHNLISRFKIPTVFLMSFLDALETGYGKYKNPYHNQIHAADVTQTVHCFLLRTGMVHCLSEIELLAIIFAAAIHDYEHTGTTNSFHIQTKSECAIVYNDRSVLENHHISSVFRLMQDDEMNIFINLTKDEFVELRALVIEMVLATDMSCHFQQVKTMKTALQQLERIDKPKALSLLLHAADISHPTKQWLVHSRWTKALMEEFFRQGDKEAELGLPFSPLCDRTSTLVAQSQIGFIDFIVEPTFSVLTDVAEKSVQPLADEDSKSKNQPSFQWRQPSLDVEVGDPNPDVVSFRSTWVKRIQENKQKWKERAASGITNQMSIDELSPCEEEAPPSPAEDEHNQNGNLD
Chain of PDE1C (Q14123 whole entry): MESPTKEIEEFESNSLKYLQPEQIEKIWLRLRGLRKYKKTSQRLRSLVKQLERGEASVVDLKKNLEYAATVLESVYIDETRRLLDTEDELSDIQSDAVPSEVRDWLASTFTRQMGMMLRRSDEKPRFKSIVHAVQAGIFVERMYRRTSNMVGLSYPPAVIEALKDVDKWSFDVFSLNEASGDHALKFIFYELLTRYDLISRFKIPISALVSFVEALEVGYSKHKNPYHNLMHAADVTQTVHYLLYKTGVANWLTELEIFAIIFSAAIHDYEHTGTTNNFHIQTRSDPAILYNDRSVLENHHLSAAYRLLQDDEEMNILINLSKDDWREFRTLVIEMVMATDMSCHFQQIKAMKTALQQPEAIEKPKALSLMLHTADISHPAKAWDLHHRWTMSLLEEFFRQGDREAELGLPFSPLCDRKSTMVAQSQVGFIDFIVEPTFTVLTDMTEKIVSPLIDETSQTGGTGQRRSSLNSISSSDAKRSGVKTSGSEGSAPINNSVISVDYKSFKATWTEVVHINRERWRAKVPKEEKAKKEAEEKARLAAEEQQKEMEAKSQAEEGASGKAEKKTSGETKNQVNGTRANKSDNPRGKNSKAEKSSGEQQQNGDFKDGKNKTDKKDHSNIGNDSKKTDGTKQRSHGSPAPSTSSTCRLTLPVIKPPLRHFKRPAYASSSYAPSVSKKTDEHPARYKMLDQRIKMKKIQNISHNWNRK
Chain of PDE1A (P54750 whole entry): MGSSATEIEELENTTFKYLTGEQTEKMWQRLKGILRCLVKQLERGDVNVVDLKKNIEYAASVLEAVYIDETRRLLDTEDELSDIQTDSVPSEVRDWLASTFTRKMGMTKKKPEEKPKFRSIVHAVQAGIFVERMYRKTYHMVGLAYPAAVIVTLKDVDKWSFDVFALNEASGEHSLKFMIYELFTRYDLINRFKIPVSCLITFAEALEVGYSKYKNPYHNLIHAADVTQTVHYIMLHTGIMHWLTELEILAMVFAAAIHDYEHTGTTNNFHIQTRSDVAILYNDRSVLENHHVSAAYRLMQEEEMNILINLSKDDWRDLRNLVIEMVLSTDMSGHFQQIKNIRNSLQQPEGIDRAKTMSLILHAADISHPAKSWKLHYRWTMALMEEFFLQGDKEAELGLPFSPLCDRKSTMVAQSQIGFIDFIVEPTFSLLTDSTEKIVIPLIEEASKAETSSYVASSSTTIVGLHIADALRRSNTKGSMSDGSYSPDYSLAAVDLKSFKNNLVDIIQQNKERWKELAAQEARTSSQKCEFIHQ

Regarding `CCNc1ncccc1-c1cc(NCc2cnn(C)c2)c2c(n1)c(C)nn2C(C)C` [Example 79, 5-(2-(ethylamino)pyridin-3-yl)-1-isopropyl-3-methyl-N-((1-methyl-1H-pyrazol-4-yl)methyl)-1H-pyrazolo[4,3-b]pyridin-7-amine], the IC50 against PDE1C was found to be 260 nM; against PDE1A, 230 nM; on PDE1B, 31 nM.
Taken in the same sequence, the figures for `CCOc1ncccc1-c1cc(NCc2cc(OC)ccn2)c2c(n1)c(C)nn2C(C)C` [Example 81, 5-(2-ethoxy-3-pyridyl)-1-isopropyl-N-[(4-methoxy-2-pyridyl)methyl]-3-methyl-pyrazolo[4,3-b]pyridin-7-amine] were 4.7 nM, 1 nM and 0.26 nM.
Taken in the same sequence, the figures for `CCOc1ncccc1-c1cc(NCc2cncc(OC)n2)c2c(n1)c(C)nn2C(C)C` [Example 82, 5-(2-ethoxy-3-pyridyl)-1-isopropyl-N-[(6-methoxypyrazin-2-yl)methyl]-3-methyl-pyrazolo[4,3-b]pyridin-7-amine] were 35 nM, 16 nM and 1 nM.
Taken in the same sequence, the figures for `CCOc1ncccc1-c1cc(NCc2ncc(F)cn2)c2c(n1)c(C)nn2C(C)C` [Example 83, 5-(2-ethoxy-3-pyridyl)-N-[(5-fluoropyrimidin-2-yl)methyl]-1-isopropyl-3-methyl-pyrazolo[4,3-b]pyridin-7-amine] were 38 nM, 17 nM and 1.2 nM.
Turning to `CCOc1ncccc1-c1cc(NCc2cccnc2C)c2c(n1)c(C)nn2C(C)C` [Example 84, 5-(2-ethoxy-3-pyridyl)-1-isopropyl-3-methyl-N-[(2-methyl-3-pyridyl)methyl]pyrazolo[4,3-b]pyridin-7-amine], the IC50 on PDE1C was 23 nM; against PDE1A, 19 nM; on PDE1B, 1.8 nM.
On to `CCOc1ncccc1-c1cc(NCc2cccnc2F)c2c(n1)c(C)nn2C(C)C` [Example 85, 5-(2-ethoxy-3-pyridyl)-N-[(2-fluoro-3-pyridyl)methyl]-1-isopropyl-3-methyl-pyrazolo[4,3-b]pyridin-7-amine], for which the values for the IC50 against PDE1C, against PDE1A and on PDE1B were 27 nM, 8.4 nM and 0.22 nM, respectively.
In the same order, the values of `CCOc1ncccc1-c1cc(NCc2cccnc2OC)c2c(n1)c(C)nn2C(C)C` [Example 86, 5-(2-ethoxy-3-pyridyl)-1-isopropyl-N-[(2-methoxy-3-pyridyl)methyl]-3-methyl-pyrazolo[4,3-b]pyridin-7-amine] are 68 nM, 20 nM and 0.36 nM.
In the same order, the values of `CCOc1ncccc1-c1cc(NCc2ccc(C)nc2)c2c(n1)c(C)nn2C(C)C` [Example 87, 5-(2-ethoxy-3-pyridyl)-1-isopropyl-3-methyl-N-[(6-methyl-3-pyridyl)methyl]pyrazolo[4,3-b]pyridin-7-amine] are 13 nM, 6.3 nM and 0.95 nM.
Turning to `CCOc1ncccc1-c1cc(NCc2ccccc2OC)c2c(n1)c(C)nn2C(C)C` [Example 88, 5-(2-ethoxy-3-pyridyl)-1-isopropyl-N-[(2-methoxyphenyl)methyl]-3-methyl-pyrazolo[4,3-b]pyridin-7-amine], the IC50 was 170 nM against PDE1C, 110 nM at PDE1A and 5.1 nM on PDE1B.
In the same order, the values of `CCOc1ncccc1-c1cc(NCc2ccccc2F)c2c(n1)c(C)nn2C(C)C` [Example 89, 5-(2-ethoxy-3-pyridyl)-N-[(2-fluorophenyl)methyl]-1-isopropyl-3-methyl-pyrazolo[4,3-b]pyridin-7-amine] are 93 nM, 61 nM and 1.5 nM.
Take `CCOc1ncccc1-c1cc(NCc2ccccc2C(F)(F)F)c2c(n1)c(C)nn2C(C)C` [Example 90, 5-(2-ethoxy-3-pyridyl)-1-isopropyl-3-methyl-N-[[2-(trifluoromethyl)phenyl]methyl]pyrazolo[4,3-b]pyridin-7-amine]: the results for the 50% inhibitory concentration (IC50) against PDE1C, against PDE1A and on PDE1B were 640 nM, 270 nM and 12 nM, respectively.
Taken in the same sequence, the figures for `CCOc1ncccc1-c1cc(NCc2nccnc2OC)c2c(n1)c(C)nn2C(C)C` [Example 91, 5-(2-ethoxy-3-pyridyl)-1-isopropyl-N-[(3-methoxypyrazin-2-yl)methyl]-3-methyl-pyrazolo[4,3-b]pyridin-7-amine] were 70 nM, 27 nM and 2.3 nM.
On to `CCOc1ncccc1-c1cc(NCc2cnccc2OC)c2c(n1)c(C)nn2C(C)C` [Example 92, 5-(2-ethoxy-3-pyridyl)-1-isopropyl-N-[(4-methoxy-3-pyridyl)methyl]-3-methyl-pyrazolo[4,3-b]pyridin-7-amine], for which the IC50 against PDE1C was 110 nM; against PDE1A it was 47 nM; at PDE1B, 2.7 nM.
In the same order, the values of `CCCOc1ncccc1-c1cc(NCc2nnn(C)n2)c2c(n1)c(C)nn2C(C)C` [Example 93, 1-isopropyl-3-methyl-N-[(2-methyltetrazol-5-yl)methyl]-5-(2-propoxy-3-pyridyl)pyrazolo[4,3-b]pyridin-7-amine] are 17 nM, 4.3 nM and 0.96 nM.
In the same order, the values of `CCCOc1ncccc1-c1cc(NCc2cnn(C)c2)c2c(n1)c(C)nn2C(C)C` [Example 94, 1-isopropyl-3-methyl-N-[(1-methylpyrazol-4-yl)methyl]-5-(2-propoxy-3-pyridyl)pyrazolo[4,3-b]pyridin-7-amine] are 4.9 nM, 1.4 nM and 0.065 nM.
Regarding `COc1ccc(CNc2cc(-c3cccnc3OC)nc3c(C)nn(C(C)C)c23)cn1` [Example 96, 1-isopropyl-5-(2-methoxy-3-pyridyl)-N-[(6-methoxy-3-pyridyl)methyl]-3-methyl-pyrazolo[4,3-b]pyridin-7-amine], the 50% inhibitory concentration (IC50) on PDE1C was 5.3 nM; on PDE1A, 18 nM; at PDE1B, 3.8 nM.
Taken in the same sequence, the figures for `Cc1nn(C(C)C)c2c(NCc3cnn(C)c3)cc(-c3cccnc3OC(C)C)nc12` [Example 97, 5-(2-isopropoxy-3-pyridyl)-1-isopropyl-3-methyl-N-[(1-methylpyrazol-4-yl)methyl]pyrazolo[4,3-b]pyridin-7-amine] were 9.1 nM, 1.4 nM and 0.6 nM.
Take `CCOc1ncccc1-c1cc(NCc2nn[nH]n2)c2c(n1)c(C)nn2C(C)C` [Example 99, 5-(2-ethoxy-3-pyridyl)-1-isopropyl-3-methyl-N-(2H-tetrazol-5-ylmethyl)pyrazolo[4,3-b]pyridin-7-amine]: the results for the IC50 on PDE1C, at PDE1A and at PDE1B were 3.8 nM, 0.73 nM and 0.31 nM, respectively.
`CCOc1ncccc1-c1cc(NCc2ccccn2)c2c(n1)c(C)nn2C(C)C` [Example 100, 5-(2-ethoxy-3-pyridyl)-1-isopropyl-3-methyl-N-(2-pyridylmethyl)pyrazolo[4,3-b]pyridin-7-amine]: the IC50 against PDE1C was found to be 21 nM; on PDE1A, 6.3 nM; at PDE1B it was 0.39 nM.
Taken in the same sequence, the figures for `CCOc1ncccc1-c1cc(NCc2cccc(C)n2)c2c(n1)c(C)nn2C(C)C` [Example 101, 5-(2-ethoxy-3-pyridyl)-1-isopropyl-3-methyl-N-[(6-methyl-2-pyridyl)methyl]pyrazolo[4,3-b]pyridin-7-amine] were 43 nM, 20 nM and 0.9 nM.
As for `CCOc1ncccc1-c1cc(NCc2cccc(OC)n2)c2c(n1)c(C)nn2C(C)C` [Example 102, 5-(2-ethoxy-3-pyridyl)-1-isopropyl-N-[(6-methoxy-2-pyridyl)methyl]-3-methyl-pyrazolo[4,3-b]pyridin-7-amine], the concentration for half-maximal inhibition (IC50) at PDE1C was 34 nM; at PDE1A, 8 nM; at PDE1B it was 0.73 nM.
Taken in the same sequence, the figures for `CCOc1ncccc1-c1cc(NCc2ccnc(C)c2)c2c(n1)c(C)nn2C(C)C` [Example 103, 5-(2-ethoxy-3-pyridyl)-1-isopropyl-3-methyl-N-[(2-methyl-4-pyridyl)methyl]pyrazolo[4,3-b]pyridin-7-amine] were 17 nM, 5.4 nM and 2.9 nM.
Taken in the same sequence, the figures for `CCOc1ncccc1-c1cc(NCc2ccnc(OC)c2)c2c(n1)c(C)nn2C(C)C` [Example 104, 5-(2-ethoxy-3-pyridyl)-1-isopropyl-N-[(2-methoxy-4-pyridyl)methyl]-3-methyl-pyrazolo[4,3-b]pyridin-7-amine] were 6.3 nM, 2.2 nM and 0.16 nM.
Taken in the same sequence, the figures for `CCOc1ncccc1-c1cc(NCc2ccnc(C)n2)c2c(n1)c(C)nn2C(C)C` [Example 105, 5-(2-ethoxy-3-pyridyl)-1-isopropyl-3-methyl-N-[(2-methylpyrimidin-4-yl)methyl]pyrazolo[4,3-b]pyridin-7-amine] were 150 nM, 54 nM and 12 nM.
For the molecule `CCOc1ncccc1-c1cc(NCc2cncc(OC)c2)c2c(n1)c(C)nn2C(C)C` [Example 106, 5-(2-ethoxy-3-pyridyl)-1-isopropyl-N-[(5-methoxy-3-pyridyl)methyl]-3-methyl-pyrazolo[4,3-b]pyridin-7-amine], the IC50 against PDE1C was found to be 3.9 nM; on PDE1A, 2.1 nM; at PDE1B it was 0.45 nM.
Taken in the same sequence, the figures for `CCOc1ncccc1-c1cc(NCc2cccc(C(F)(F)F)n2)c2c(n1)c(C)nn2C(C)C` [Example 107, 5-(2-ethoxy-3-pyridyl)-1-isopropyl-3-methyl-N-[[6-(trifluoromethyl)-2-pyridyl]methyl]pyrazolo[4,3-b]pyridin-7-amine] were 170 nM, 110 nM and 5.6 nM.

(Values after patent publication US10034861B2 (priority 2016, dated 2018).)
